# Assay results reported in publication PMC6935304 (International Journal of Nanomedicine, 2019).
# Read-outs that look alike come from different tables or passages of the source.
# What was measured:
# [1] = In vitro drug release by dialysis against PBS, HPLC; assay type: physicochemical; conditions: room temperature
# [2] = system: plasma proteins; conditions: rat; cited from earlier work
# [3] = system: plasma proteins; conditions: dog; cited from earlier work
# [4] = system: plasma proteins; conditions: human; cited from earlier work
# [5] = system: CSE; test: Immunoblot of CSE expression in hearts of heart failure rats; assay type: in vivo; conditions: rat heart, 6 weeks after myocardial infarction
substance,measurement,setting,value
S-propargyl-cysteine [ZYZ-802],Time to release from the dialysis tubing,[1],≤ 30 min
same,Binding rate to plasma proteins,[2],very low
same,Binding rate to plasma proteins,[3],very low
same,Binding rate to plasma proteins,[4],very low
same,CSE expression relative to HF group or DP-LP group,[5],1.6 times
